One assay concerns 293T. Description: Nucleoside uptake assay (uptake) using 3H-Thymidine, 293T. The format is cell-based. To be noted: 293T cells. How it is done: Nucleoside Uptake Assay (uptake). Nuceloside uptake assays were performed with using 3H-Thymidine as described in Guo et al. (2018) Nat. Chem. 11:254-63. Specific cell lines are indicated in each assay and cultured in complete growth media. Activity is scored according to the IC50 values relative to DMSO control. “Low” indicates an IC50 greater than 600 nM, “Medium” indicates an IC50 between 300 nM and 600 nM “High” indicates an IC50 less than 300 nM. “Rel.Uptake” refers to uptake activity characterization relative to a single concentration assay. “Low” indicates a response greater than 0.6 times the activity relative to DMSO, “Medium” indicates a response between 0.6 and 0.3 times the activity relative to DMSO, “High” indicates a response less than 0.3 times the activity relative to DMSO.

For assay [1], the system named is nucleoside uptake (3H-Thymidine). Description: Rel.Uptake: nucleoside uptake, single concentration assay, cell line as indicated in each table. The format is cell-based. To be noted: response relative to DMSO. In a few lines:
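3H-thymidine uptake measured in the indicated cell lines (e.g. 293T) grown in complete media. IC50 scored relative to DMSO control as Low >600 nM, Medium 300-600 nM, High <300 nM; Rel.Uptake single-concentration response vs DMSO scored Low >0.6, Medium 0.3-0.6, High <0.3.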

Where [2] appears, read: IC50 class relative to DMSO control.

Consider `COc1ccc(CC[C@H]2OC(=O)[C@@H]3CCCCN3C(=O)C(=O)C(C)(C)COC(=O)C=CCCN(C)C(=O)[C@H](CC(C)C)N(C)C(=O)[C@H]3CCCN3C(=O)[C@H](Cc3ccc(OCc4ccccc4)cc3)NC(=O)C(c3ccccc3)NC(=O)CCC(=O)Nc3cccc2c3)cc1OC` (stereo partly drawn) [Compound 1082], for which, in the assay on 293T (setting [2]), the “Uptake, 293T” value is recorded as “low”. The “Rel. Uptake, 293T” value in assay [1] (293T) is listed as “low”.
On to `COc1ccc(CC[C@H]2OC(=O)[C@@H]3CCCCN3C(=O)C(=O)C(C)(C)COC(=O)C=CCCN(C)C(=O)[C@H](CC(C)C)N(C)C(=O)[C@H]3CCCN3C(=O)[C@H]3C[C@@H](NC(=O)OC(C)(C)C)CN3C(=O)C(c3ccccc3)NC(=O)CCC(=O)Nc3cccc2c3)cc1OC` (stereo partly drawn) [Compound 1087], for which, in the assay on 293T (setting [2]), the “Uptake, 293T” value was “low”. Further, the “Rel. Uptake, 293T” value in assay [1] (293T cells) is “low”.
Consider `COc1ccc(CC[C@H]2OC(=O)[C@@H]3CCCCN3C(=O)C(=O)C(C)(C)COC(=O)C=CCCN(C)C(=O)[C@H](CC(C)C)N(C)C(=O)[C@H]3CCCN3C(=O)[C@H](Cc3ccccc3)N(C)C(=O)[C@H](CC(=O)OC(C)(C)C)NC(=O)CCC(=O)Nc3cccc2c3)cc1OC` [Compound 1088], for which, in the assay on 293T (setting [2]), the “Uptake, 293T” value is “low”. For the same compound, in assay [1] (293T cells), the “Rel. Uptake, 293T” value is “low”.
With `COc1ccc(CC[C@H]2OC(=O)[C@@H]3CCCCN3C(=O)C(=O)C(C)(C)COC(=O)C=CCCN(C)C(=O)[C@@H](c3ccccc3)NC(=O)[C@H](Cc3ccc(OP(C)(C)=O)cc3)NC(=O)[C@H]3CCCN3C(=O)[C@H](CC(C)C)N(C)C(=O)COc3cccc2c3)cc1OC` [Compound 1520], in the assay with 293T (Table 16), the “Uptake, 293T” value was “low”. Besides, the “Rel. Uptake, 293T” value in assay [1] (293T, nucleoside uptake) is “low”.
Regarding `COc1ccc(CC[C@H]2OC(=O)[C@@H]3CCCCN3C(=O)C(=O)C(C)(C)COC(=O)C=CCCN(C)C(=O)[C@H](CC(C)C)N(C)C(=O)[C@H]3CCCN3C(=O)[C@H](Cc3ccc(O)cc3)NC(=O)C(c3ccccc3)NC(=O)CCC(=O)Nc3cccc2c3)cc1OC` (stereo partly drawn) [Compound 1522], the “Uptake, 293T” value with 293T (setting [2]) is reported as “high”. The “Rel. Uptake, 293T” value in assay [1] (293T, nucleoside uptake) is recorded as “high”.
For the compound `COc1ccc(CC[C@H]2OC(=O)[C@@H]3CCCCN3C(=O)C(=O)C(C)(C)CNC(=O)C=CCCN(C)C(=O)[C@H](CC(C)C)N(C)C(=O)[C@H]3CCCN3C(=O)[C@H](Cc3ccccc3)N(C)C(=O)C(c3ccccc3)NC(=O)CCC(=O)Nc3cccc2c3)cc1OC` (stereo partly drawn) [Compound 1555], in the assay with 293T (setting [2]), the “Uptake, 293T” value is reported as “high”. Besides, the “Rel. Uptake, 293T” value in assay [1] (293T, nucleoside uptake) is listed as “high”.
Regarding `COc1ccc(CC[C@H]2OC(=O)[C@@H]3CCCCN3C(=O)C(=O)C(C)(C)COC(=O)C=CCCN(C)NC(c3ccccc3)C(=O)N(C)[C@@H](Cc3ccccc3)C(=O)N3CCC[C@@H]3C(=O)N(C)[C@@H](CC(C)C)C(=O)C(=O)CCOc3cccc2c3)cc1OC` (stereo partly drawn) [Compound 1556], in the assay on 293T (setting [2]), the “Uptake, 293T” value is “low”. In assay [1] (293T, nucleoside uptake), the “Rel. Uptake, 293T” value is on record as “low”.
For `COc1ccc(CC[C@H]2NC(=O)[C@@H]3CCCCN3C(=O)C(=O)C(C)(C)COC(=O)C=CCCN(C)C(=O)[C@H](CC(C)C)N(C)C(=O)[C@H]3CCCN3C(=O)[C@H](Cc3ccccc3)N(C)C(=O)C(c3ccccc3)NC(=O)CCC(=O)Nc3cccc2c3)cc1OC` (stereo partly drawn) [Compound 1557], the “Uptake, 293T” value with 293T (setting [2]) was “high”. Besides, in assay [1] (293T, nucleoside uptake), the “Rel. Uptake, 293T” value is “high”.
As to `COc1ccc(CC[C@H]2OC(=O)[C@@H]3CCCCN3C(=O)C(=O)C(C)(C)COC(=O)C=CCCN(C)C(=O)[C@H](CC(C)C)N(C)C(=O)[C@H]3CCCN3C(=O)[C@H](Cc3ccc(C(=O)NCCO)cc3)NC(=O)[C@H](c3ccccc3)NC(=O)CCC(=O)Nc3cccc2c3)cc1OC` [Compound 1558], the “Uptake, 293T” value in the assay on 293T (Table 15) is recorded as “high”. Further, the “Rel. Uptake, 293T” value in assay [1] (293T, nucleoside uptake) is “high”.
In the case of `COc1ccc(CC[C@H]2OC(=O)[C@@H]3CCCCN3C(=O)C(=O)C(C)(C)COC(=O)C=CCCN(C)C(=O)[C@H](CC(C)C)N(C)C(=O)[C@H]3CCCN3C(=O)[C@H](Cc3ccc(C(=O)Nc4ccccc4)cc3)NC(=O)[C@H](c3ccccc3)NC(=O)CCC(=O)Nc3cccc2c3)cc1OC` [Compound 1559], the “Uptake, 293T” value in the assay on 293T (Table 15) is listed as “medium”. The “Rel. Uptake, 293T” value in assay [1] (293T, nucleoside uptake) is given as “medium”.
Take `COc1ccc(CC[C@H]2OC(=O)[C@@H]3CCCCN3C(=O)C(=O)C(C)(C)COC(=O)C=CCCN(C)C(=O)[C@H](CC(C)C)N(C)C(=O)[C@H]3CCCN3C(=O)[C@H](Cc3ccc(C(=O)Nc4cccnc4)cc3)NC(=O)[C@H](c3ccccc3)NC(=O)CCC(=O)Nc3cccc2c3)cc1OC` [Compound 1562]: the “Uptake, 293T” value in the assay on 293T (Table 15) was “low”. Further, the “Rel. Uptake, 293T” value in assay [1] (293T, nucleoside uptake) was “low”.
For `COc1ccc(CC[C@H]2OC(=O)[C@@H]3CCCCN3C(=O)C(=O)C(C)(C)COC(=O)C=CCCN(C)C(=O)[C@H](CC(C)C)N(C)C(=O)[C@H]3CCCN3C(=O)[C@H](Cc3ccc(CNC(=O)c4ccccc4)cc3)NC(=O)[C@H](c3ccccc3)NC(=O)CCC(=O)Nc3cccc2c3)cc1OC` [Compound 1585], the concentration for half-maximal inhibition (IC50) in the assay with 293T (Table 14) was < 300 nM. Further, in assay [1] (293T, nucleoside uptake), the “Rel. Uptake, 293T” value is reported as “High (“High” indicates a response less than 0.3 times the activity relative to DMSO)”.
For `COc1ccc(CC[C@H]2OC(=O)[C@@H]3CCCCN3C(=O)C(=O)C(C)(C)COC(=O)C=CCCN(C)C(=O)[C@H](CC(C)C)N(C)C(=O)[C@H]3CCCN3C(=O)[C@H](Cc3ccc(CNC(=O)Cc4ccccc4)cc3)NC(=O)[C@H](c3ccccc3)NC(=O)CCC(=O)Nc3cccc2c3)cc1OC` [Compound 1586], the “Uptake, 293T” value in the assay with 293T (Table 14) is listed as “Med”. In addition, the “Rel. Uptake, 293T” value in assay [1] (293T, nucleoside uptake) was “Med”.
`COc1ccc(CC[C@H]2OC(=O)[C@@H]3CCCCN3C(=O)C(=O)C(C)(C)COC(=O)C=CCCN(C)C(=O)[C@H](CC(C)C)N(C)C(=O)[C@H]3CCCN3C(=O)[C@H](Cc3ccc(CNC(=O)CN(C)C)cc3)NC(=O)[C@H](c3ccccc3)NC(=O)CCC(=O)Nc3cccc2c3)cc1OC` [Compound 1587]: the IC50 with 293T (Table 14) is > 600 nM. The “Rel. Uptake, 293T” value in assay [1] (293T, nucleoside uptake) is reported as “Low (“Low” indicates a response greater than 0.6 times the activity relative to DMSO)”.
As to `COc1ccc(CC[C@H]2OC(=O)[C@@H]3CCCCN3C(=O)C(=O)C(C)(C)COC(=O)C=CCCN(C)C(=O)[C@H](CC(C)C)N(C)C(=O)[C@H]3CCCN3C(=O)[C@H](Cc3cccc(NC(C)=O)c3)NC(=O)[C@H](c3ccccc3)NC(=O)CCC(=O)Nc3cccc2c3)cc1OC` [Compound 1588], the IC50 with 293T (Table 14) is < 300 nM. For the same compound, in assay [1] (293T, nucleoside uptake), the “Rel. Uptake, 293T” value is “High (“High” indicates a response less than 0.3 times the activity relative to DMSO)”.
Turning to `COc1ccc(CC[C@H]2OC(=O)[C@@H]3CCCCN3C(=O)C(=O)C(C)(C)COC(=O)C=CCCN(C)C(=O)[C@H](CC(C)C)N(C)C(=O)[C@H]3CCCN3C(=O)[C@H](Cc3ccc(NC(=O)Cc4cccnc4)cc3)NC(=O)[C@H](c3ccccc3)NC(=O)CCC(=O)Nc3cccc2c3)cc1OC` [Compound 1589], the IC50 in the assay with 293T (Table 14) was > 600 nM. Further, the “Rel. Uptake, 293T” value in assay [1] (293T, nucleoside uptake) is recorded as “Low (“Low” indicates a response greater than 0.6 times the activity relative to DMSO)”.
Regarding `COc1ccc(CC[C@H]2OC(=O)[C@@H]3CCCCN3C(=O)C(=O)C(C)(C)COC(=O)C=CCCN(C)C(=O)[C@H](CC(C)C)N(C)C(=O)[C@H]3CCCN3C(=O)[C@H](Cc3ccc(CC(=O)NCc4ccccc4)cc3)NC(=O)[C@H](c3ccccc3)NC(=O)CCC(=O)Nc3cccc2c3)cc1OC` [Compound 1590], the IC50 in the assay with 293T (Table 15) is > 600 nM. Besides, the “Rel. Uptake, 293T” value in assay [1] (293T, nucleoside uptake) is reported as “High (“High” indicates a response less than 0.3 times the activity relative to DMSO)”.
Take `CCCCCCNC(=O)Cc1ccc(C[C@@H]2NC(=O)[C@H](c3ccccc3)NC(=O)CCC(=O)Nc3cccc(c3)[C@@H](CCc3ccc(OC)c(OC)c3)OC(=O)[C@@H]3CCCCN3C(=O)C(=O)C(C)(C)COC(=O)C=CCCN(C)C(=O)[C@H](CC(C)C)N(C)C(=O)[C@H]3CCCN3C2=O)cc1` [Compound 1591]: in the assay with 293T (Table 15), the IC50 is > 600 nM. Further, the “Rel. Uptake, 293T” value in assay [1] (293T, nucleoside uptake) was “Med”.

The IC50 is the concentration at which inhibition is half-maximal. A higher IC50 goes with a need for much substance.

(Values after patent US11066416B2, “Rapafucin derivative compounds and methods of use thereof” (The Johns Hopkins University, priority 2016, dated 2021).)
